# Assay results: publication PMC7765948, “Spadin Modulates Astrocytic Passive Conductance via Inhibition of TWIK-1/TREK-1 Heterodimeric Channels” (International Journal of Molecular Sciences, 2020)
# Like-named read-outs stand apart in the source and are kept apart here.
# What was measured:
# TREK-1 = settings: cited from earlier work; for reduction of TREK-1 activity: antidepressants
# Procedure: (§1) Because of the typical linear I–V relationship of astrocytic passive conductance, it has been speculated that astrocytic passive conductance is carried by non-voltage-gated K^+ channels.
# [1] = system: astrocytic passive conductance in mouse hippocampal slices; experiment: Whole-cell patch clamp of astrocytic passive conductance in hippocampal slices; type: cell-based, mouse (C57BL/6); settings: quinidine 200 μM versus spadin 10 μM
# Procedure: Lentiviruses were injected into hippocampal CA1 region (AP: 0.17, ML: 0.17, DV: 0.19) of 7–8 week-old wild-type C57BL/6 mice. The virus-infected mouse brain slices (350 μm) containing the hippocampus were […]. Individual hippocampal slices were transferred to a recording chamber, which was constantly perfused with artificial cerebrospinal fluid (ACSF) recording solution containing (in mM) 130 NaCl, 24 NaHCO3, 3.5 KCl, 1.25 NaH2PO4, 1.5 CaCl2, 1.5 MgCl2, and 10 glucose saturated with 95% O2–5% CO2 at pH 7.4. Brain slices were co-loaded with SR-101 (Sigma Aldrich, St. Louis, MO, USA; 1 mM) dye to identify the location of astrocytes in the CA1 region. The slices were recovered at room temperature for at least 1 h before SR101 incubation and electrophysiological recording. […] Whole-cell patch recordings were performed on hippocampal astrocytes with a voltage-clamp configuration using an Axopatch 700B (Axon Instruments, Union City, CA, USA). All data are presented as means ± standard error of the mean (s.e.m). The significance of data for comparison was assessed by Student’s t-test (paired t-test) or one-way ANOVA followed by Turkey’s post hoc test, and significance levels are given as: n.s: not significant, * p < 0.05, ** p < 0.01, *** p < 0.001, and **** p < 0.0001. […]
# [2] = system: astrocytic passive conductance; settings: 200 μM quinine; cited from earlier work
# Procedure: as §1
# TWIK-1 (K274E) = settings: 100 μM quinine; cited from earlier work
# Procedure: as §1
# [3] = conventional K^+ channel blockers
smiles,measurement,setting,value
Nc1ccncn1 [4-aminopyrimidine],TREK-1 channel activity,TREK-1; [3],not
"CCCCC/C=C\C/C=C\C/C=C\C/C=C\CCCC(=O)O [AA, arachidonic acid]",TREK-1 channel activation,TREK-1,activated
CNCCC(Oc1ccc(C(F)(F)F)cc1)c1ccccc1 (centres unmarked) [Fluoxetine],reduction of TREK-1 activity,TREK-1,effective in the reduction of TREK-1 activity
Fc1ccc([C@@H]2CCNC[C@H]2COc2ccc3c(c2)OCO3)cc1 [paroxetine],reduction of TREK-1 activity,TREK-1,effective in the reduction of TREK-1 activity
C=C[C@H]1C[N@@]2CC[C@H]1C[C@@H]2[C@@H](O)c1ccnc2ccc(OC)cc12 [quinidine],concentration required for similar inhibition of passive conductance,[1],required at a much higher concentration than spadin
same,TREK-1 channel activity,TREK-1; high-dose quinine or quinidine,affected
C=C[C@H]1C[N@@]2CC[C@H]1C[C@H]2[C@H](O)c1ccnc2ccc(OC)cc12 [quinine],inhibition of astrocytic passive conductance,[2],58%
same,cloned TWIK-1 (K274E) current,TWIK-1 (K274E),potently decreases
same,cloned TREK-1 current,TREK-1; 100 μM quinine,potently decreases
same,TREK-1 channel activity,TREK-1; high-dose quinine or quinidine,affected
CC[N+](CC)(CC)CC [tetraethylammonium],TREK-1 channel activity,TREK-1; [3],not
